Test system: 855422-203-R-J1-PDC complex spheroid viability
Test: Anticancer human tumor 855422-203-R-J1-PDC patient-derived bladder carcinoma cell line growth inhibition [POLQ]
Settings: for IC50: curve of first compound; for viability, T/C: stronger effect = lower value
Procedure, shortened: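 Complex spheroid viability model combining PDC tumour cells with endothelial (HUVEC) and MSC stromal cells. Novobiocin, ART-558 or RP6685 were tested singly and in combination with standard and investigational anticancer drugs. Each was titrated in half-log steps from near clinical Cmax, or from 10 microM where Cmax was unknown.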

[1] = second compound 0.0316 µM, first compound 0.0316 µM
[2] = second compound 0.0316 µM, first compound 0.1 µM
[3] = second compound 0.0316 µM, first compound 0.316 µM
[4] = second compound 0.0316 µM, first compound 1 µM
[5] = second compound 0.0316 µM, first compound 3.16 µM
[6] = second compound 0.0316 µM, first compound 10 µM
[7] = second compound 0.1 µM, first compound 0.0316 µM
[8] = second compound 0.1 µM, first compound 0.1 µM
[9] = second compound 0.1 µM, first compound 0.316 µM
[10] = second compound 0.1 µM, first compound 1 µM
[11] = second compound 0.1 µM, first compound 3.16 µM
[12] = second compound 0.1 µM, first compound 10 µM
[13] = second compound 0.316 µM, first compound 0.0316 µM
[14] = second compound 0.316 µM, first compound 0.1 µM
[15] = second compound 0.316 µM, first compound 0.316 µM
[16] = second compound 0.316 µM, first compound 1 µM
[17] = second compound 0.316 µM, first compound 3.16 µM
[18] = second compound 0.316 µM, first compound 10 µM
[19] = second compound 1 µM, first compound 0.0316 µM
[20] = second compound 1 µM, first compound 0.1 µM
[21] = second compound 1 µM, first compound 0.316 µM
[22] = second compound 1 µM, first compound 1 µM
[23] = second compound 1 µM, first compound 3.16 µM
[24] = second compound 1 µM, first compound 10 µM
[25] = second compound 3.16 µM, first compound 0.0316 µM
[26] = second compound 3.16 µM, first compound 0.1 µM
[27] = second compound 3.16 µM, first compound 0.316 µM
[28] = second compound 3.16 µM, first compound 1 µM
[29] = second compound 3.16 µM, first compound 3.16 µM
[30] = second compound 3.16 µM, first compound 10 µM
[31] = second compound 10 µM, first compound 0.0316 µM
[32] = second compound 10 µM, first compound 0.1 µM
[33] = second compound 10 µM, first compound 0.316 µM
[34] = second compound 10 µM, first compound 1 µM
[35] = second compound 10 µM, first compound 3.16 µM
[36] = second compound 10 µM, first compound 10 µM
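Note: spheroids exposed to compounds for seven days before readout.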

C=CC(=O)N1CCN(c2nc(=O)n(-c3c(C)ccnc3C(C)C)c3nc(-c4c(O)cccc4F)c(F)cc23)C(C)C1 (stereo unspecified) + Cc1cccc(N(C)C(=O)C2C(O)CCN2c2nc(C)cc(C(F)(F)F)c2C#N)c1
IC50 (second compound 0.0316 µM): > 10000 nM | IC50 (second compound 0.1 µM): > 10000 nM | IC50 (second compound 0.316 µM): > 10000 nM | IC50 (second compound 1 µM): > 10000 nM | IC50 (second compound 3.16 µM): > 10000 nM | IC50 (second compound 10 µM): > 10000 nM | viability, T/C [1]: 98.9% | viability, T/C [2]: 112% | viability, T/C [3]: 103% | viability, T/C [4]: 107% | viability, T/C [5]: 121% | viability, T/C [6]: 114% | viability, T/C [7]: 107% | viability, T/C [8]: 105% | viability, T/C [9]: 108% | viability, T/C [10]: 114% | viability, T/C [11]: 121% | viability, T/C [12]: 111% | viability, T/C [13]: 107% | viability, T/C [14]: 89.5% | viability, T/C [15]: 99.7% | viability, T/C [16]: 106% | viability, T/C [17]: 128% | viability, T/C [18]: 121% | viability, T/C [19]: 96.4% | viability, T/C [20]: 108% | viability, T/C [21]: 109% | viability, T/C [22]: 107% | viability, T/C [23]: 133% | viability, T/C [24]: 107% | viability, T/C [25]: 104% | viability, T/C [26]: 96% | viability, T/C [27]: 113% | viability, T/C [28]: 105% | viability, T/C [29]: 118% | viability, T/C [30]: 117% | viability, T/C [31]: 102% | viability, T/C [32]: 108% | viability, T/C [33]: 107% | viability, T/C [34]: 109% | viability, T/C [35]: 123% | viability, T/C [36]: 114%

CC1COCCN1c1cc(-c2ccnn2C)c2ccnc(-c3ccn[nH]3)c2n1 (stereo unspecified) + Cc1cccc(N(C)C(=O)C2C(O)CCN2c2nc(C)cc(C(F)(F)F)c2C#N)c1
IC50 (second compound 0.0316 µM): 168 nM | IC50 (second compound 0.1 µM): 152 nM | IC50 (second compound 0.316 µM): 167 nM | IC50 (second compound 1 µM): 165 nM | IC50 (second compound 3.16 µM): 155 nM | IC50 (second compound 10 µM): 167 nM | viability, T/C [1]: 113% | viability, T/C [2]: 73% | viability, T/C [3]: 21.4% | viability, T/C [4]: 12.4% | viability, T/C [5]: 7.93% | viability, T/C [6]: 7.23% | viability, T/C [7]: 94.7% | viability, T/C [8]: 68.9% | viability, T/C [9]: 17.3% | viability, T/C [10]: 9.3% | viability, T/C [11]: 8.23% | viability, T/C [12]: 7.12% | viability, T/C [13]: 108% | viability, T/C [14]: 73.4% | viability, T/C [15]: 20.4% | viability, T/C [16]: 10.9% | viability, T/C [17]: 7.43% | viability, T/C [18]: 7.37% | viability, T/C [19]: 111% | viability, T/C [20]: 70.3% | viability, T/C [21]: 23.3% | viability, T/C [22]: 11.7% | viability, T/C [23]: 8.35% | viability, T/C [24]: 7.83% | viability, T/C [25]: 105% | viability, T/C [26]: 66.8% | viability, T/C [27]: 22.7% | viability, T/C [28]: 10.6% | viability, T/C [29]: 7.46% | viability, T/C [30]: 6.31% | viability, T/C [31]: 93.5% | viability, T/C [32]: 70.3% | viability, T/C [33]: 24.7% | viability, T/C [34]: 12.4% | viability, T/C [35]: 8.8% | viability, T/C [36]: 9.23%

CC1COCCN1c1cc(C2(S(C)(=N)=O)CC2)nc(-c2ccnc3[nH]ccc23)n1 (stereo unspecified) + Cc1cccc(N(C)C(=O)C2C(O)CCN2c2nc(C)cc(C(F)(F)F)c2C#N)c1
IC50 (second compound 0.0316 µM): 2560 nM | IC50 (second compound 0.1 µM): 2660 nM | IC50 (second compound 0.316 µM): 2500 nM | IC50 (second compound 1 µM): 2490 nM | IC50 (second compound 3.16 µM): 2370 nM | IC50 (second compound 10 µM): 2140 nM | viability, T/C [1]: 112% | viability, T/C [2]: 97.3% | viability, T/C [3]: 107% | viability, T/C [4]: 106% | viability, T/C [5]: 37.4% | viability, T/C [6]: 12.5% | viability, T/C [7]: 94.7% | viability, T/C [8]: 107% | viability, T/C [9]: 115% | viability, T/C [10]: 100% | viability, T/C [11]: 41.1% | viability, T/C [12]: 10.7% | viability, T/C [13]: 96.3% | viability, T/C [14]: 106% | viability, T/C [15]: 101% | viability, T/C [16]: 107% | viability, T/C [17]: 36.6% | viability, T/C [18]: 10.6% | viability, T/C [19]: 110% | viability, T/C [20]: 123% | viability, T/C [21]: 115% | viability, T/C [22]: 103% | viability, T/C [23]: 36% | viability, T/C [24]: 10.8% | viability, T/C [25]: 105% | viability, T/C [26]: 119% | viability, T/C [27]: 94.5% | viability, T/C [28]: 105% | viability, T/C [29]: 31.4% | viability, T/C [30]: 10.2% | viability, T/C [31]: 103% | viability, T/C [32]: 102% | viability, T/C [33]: 105% | viability, T/C [34]: 97.5% | viability, T/C [35]: 25.7% | viability, T/C [36]: 14.1%
